These results are taken from the NIST ThermoML archive (doi:10.1021/acs.jced.5b00259).

Numbers after ± are expanded uncertainties.

In general, mass density refers to mass per unit of volume. Usually viscosity stands for the internal friction of a fluid under shear.

Assay in the first series: not given
The conditions noted are these: 293.15 K; 100 kPa; Liquid.
For the molecule `CC[NH+]=C(N(C)C)N(C)C.O=S(=O)([N-]S(=O)(=O)C(F)(F)F)C(F)(F)F`, the mass density amounted to 1414.89 ± 12 kg/m3 and the viscosity stood at 74.61 ± 5.5 mPa·s.

On to `CCOS(=O)(=O)[O-].CC[NH+]=C(N(C)C)N(C)C` [2-ethyl-1,1,3,3-tetramethylguanidinium ethyl sulfate], for which the mass density worked out at 1170.76 ± 1.5 kg/m3 and the viscosity amounted to 673.4 ± 300 mPa·s.

For the molecule `CCO` [ethanol], the mass density is given as 789.62 ± 0.46 kg/m3 and the viscosity was found to be 1.177 ± 0.047 mPa·s.

`CCCO` [propan-1-ol]: the mass density is on record as 803.49 ± 0.43 kg/m3 and the viscosity came to 2.164 ± 0.087 mPa·s.

The same series, now with this note: 298.15 K; 100 kPa; Liquid.
Consider `CC[NH+]=C(N(C)C)N(C)C.O=S(=O)([N-]S(=O)(=O)C(F)(F)F)C(F)(F)F`, for which the mass density is given as 1410.03 ± 12 kg/m3 and the viscosity worked out at 58.86 ± 2.3 mPa·s.

On to `CCOS(=O)(=O)[O-].CC[NH+]=C(N(C)C)N(C)C` [2-ethyl-1,1,3,3-tetramethylguanidinium ethyl sulfate], for which the mass density came out at 1167.24 ± 1.5 kg/m3 and the viscosity is on record as 441.5 ± 170 mPa·s.

Turning to `CCO` [ethanol], the mass density is 785.25 ± 0.47 kg/m3 and the viscosity is 1.071 ± 0.043 mPa·s.

Take `CCCO` [propan-1-ol]: the mass density is on record as 799.49 ± 0.44 kg/m3 and the viscosity is listed as 1.948 ± 0.078 mPa·s.

The same series, now with this note: 303.15 K; 100 kPa; Liquid.
As to `CC[NH+]=C(N(C)C)N(C)C.O=S(=O)([N-]S(=O)(=O)C(F)(F)F)C(F)(F)F`, the mass density turned out to be 1405.19 ± 12 kg/m3 and the viscosity came out at 47.27 ± 2.3 mPa·s.

In the case of `CCOS(=O)(=O)[O-].CC[NH+]=C(N(C)C)N(C)C` [2-ethyl-1,1,3,3-tetramethylguanidinium ethyl sulfate], the mass density is given as 1163.76 ± 1.5 kg/m3 and the viscosity was 302.5 ± 95 mPa·s.

With `CCO` [ethanol], the mass density is on record as 780.89 ± 0.47 kg/m3 and the viscosity is given as 0.978 ± 0.04 mPa·s.

`CCCO` [propan-1-ol]: the mass density turned out to be 795.46 ± 0.45 kg/m3 and the viscosity is on record as 1.707 ± 0.069 mPa·s.

Still in this series, the particulars now being: 308.15 K; 100 kPa; Liquid.
On to `CC[NH+]=C(N(C)C)N(C)C.O=S(=O)([N-]S(=O)(=O)C(F)(F)F)C(F)(F)F`, for which the mass density was 1400.38 ± 12 kg/m3 and the viscosity stood at 38.71 ± 1.8 mPa·s.

For `CCOS(=O)(=O)[O-].CC[NH+]=C(N(C)C)N(C)C` [2-ethyl-1,1,3,3-tetramethylguanidinium ethyl sulfate], the mass density amounted to 1160.28 ± 1.5 kg/m3 and the viscosity was determined as 214.6 ± 54 mPa·s.

Consider `CCO` [ethanol], for which the mass density is listed as 776.52 ± 0.48 kg/m3 and the viscosity came to 0.895 ± 0.036 mPa·s.

For `CCCO` [propan-1-ol], the mass density is 791.39 ± 0.45 kg/m3 and the viscosity turned out to be 1.525 ± 0.061 mPa·s.

Staying with this series, now noted: 313.15 K; 100 kPa; Liquid.
Turning to `CC[NH+]=C(N(C)C)N(C)C.O=S(=O)([N-]S(=O)(=O)C(F)(F)F)C(F)(F)F`, the mass density is reported as 1395.59 ± 12 kg/m3 and the viscosity is 32.2 ± 1.5 mPa·s.

For `CCOS(=O)(=O)[O-].CC[NH+]=C(N(C)C)N(C)C` [2-ethyl-1,1,3,3-tetramethylguanidinium ethyl sulfate], the mass density stood at 1156.8 ± 1.4 kg/m3 and the viscosity came to 157.2 ± 31 mPa·s.

Consider `CCO` [ethanol], for which the mass density worked out at 772.12 ± 0.49 kg/m3 and the viscosity worked out at 0.822 ± 0.033 mPa·s.

Regarding `CCCO` [propan-1-ol], the mass density amounted to 787.29 ± 0.46 kg/m3 and the viscosity was found to be 1.366 ± 0.055 mPa·s.

The series is the same for the next values; noted with them: 318.15 K; 100 kPa; Liquid.
Regarding `CC[NH+]=C(N(C)C)N(C)C.O=S(=O)([N-]S(=O)(=O)C(F)(F)F)C(F)(F)F`, the mass density was found to be 1390.8 ± 12 kg/m3 and the viscosity came to 27.09 ± 1.3 mPa·s.

As to `CCOS(=O)(=O)[O-].CC[NH+]=C(N(C)C)N(C)C` [2-ethyl-1,1,3,3-tetramethylguanidinium ethyl sulfate], the mass density is 1153.33 ± 1.4 kg/m3 and the viscosity stood at 118.3 ± 18 mPa·s.

For the molecule `CCO` [ethanol], the mass density was 767.71 ± 0.49 kg/m3 and the viscosity worked out at 0.756 ± 0.031 mPa·s.

For the molecule `CCCO` [propan-1-ol], the mass density was 783.14 ± 0.46 kg/m3 and the viscosity was found to be 1.228 ± 0.05 mPa·s.

The same series, now with this note: 323.15 K; 100 kPa; Liquid.
As to `CC[NH+]=C(N(C)C)N(C)C.O=S(=O)([N-]S(=O)(=O)C(F)(F)F)C(F)(F)F`, the mass density is reported as 1386.03 ± 12 kg/m3 and the viscosity is listed as 23.14 ± 1.1 mPa·s.

With `CCOS(=O)(=O)[O-].CC[NH+]=C(N(C)C)N(C)C` [2-ethyl-1,1,3,3-tetramethylguanidinium ethyl sulfate], the mass density is 1149.87 ± 1.4 kg/m3 and the viscosity came out at 91.22 ± 9.6 mPa·s.

In the case of `CCO` [ethanol], the mass density is recorded as 763.26 ± 0.5 kg/m3 and the viscosity is reported as 0.698 ± 0.028 mPa·s.

Turning to `CCCO` [propan-1-ol], the mass density is reported as 778.93 ± 0.47 kg/m3 and the viscosity was 1.107 ± 0.045 mPa·s.

A short description of the next series: xn = mol fraction of the nth substance listed. The conditions noted are these: 293.15 K; 100 kPa; Liquid; x2 = 0.
`CCO` [ethanol] + CCOS(=O)(=O)[O-].CC[NH+]=C(N(C)C)N(C)C: the mass density was 789.62 ± 0.46 kg/m3 and the viscosity is 1.177 ± 0.047 mPa·s.

Take `CCO` [ethanol] + CC[NH+]=C(N(C)C)N(C)C.O=S(=O)([N-]S(=O)(=O)C(F)(F)F)C(F)(F)F: the mass density is 789.62 ± 0.46 kg/m3 and the viscosity was determined as 1.177 ± 0.047 mPa·s.

With `CCCO` [propan-1-ol] + CCOS(=O)(=O)[O-].CC[NH+]=C(N(C)C)N(C)C, the mass density is listed as 803.49 ± 0.43 kg/m3 and the viscosity was 2.164 ± 0.17 mPa·s.

As for `CCCO` [propan-1-ol] + CC[NH+]=C(N(C)C)N(C)C.O=S(=O)([N-]S(=O)(=O)C(F)(F)F)C(F)(F)F, the mass density was 803.49 ± 0.43 kg/m3 and the viscosity worked out at 2.164 ± 0.087 mPa·s.

Staying with this series, now noted: 298.15 K; 100 kPa; Liquid; x2 = 0.
With `CCO` [ethanol] + CCOS(=O)(=O)[O-].CC[NH+]=C(N(C)C)N(C)C, the mass density worked out at 785.25 ± 0.47 kg/m3 and the viscosity is listed as 1.071 ± 0.043 mPa·s.

Take `CCO` [ethanol] + CC[NH+]=C(N(C)C)N(C)C.O=S(=O)([N-]S(=O)(=O)C(F)(F)F)C(F)(F)F: the mass density worked out at 785.25 ± 0.47 kg/m3 and the viscosity worked out at 1.071 ± 0.043 mPa·s.

Regarding `CCCO` [propan-1-ol] + CCOS(=O)(=O)[O-].CC[NH+]=C(N(C)C)N(C)C, the mass density worked out at 799.49 ± 0.44 kg/m3 and the viscosity is 1.948 ± 0.16 mPa·s.

On to `CCCO` [propan-1-ol] + CC[NH+]=C(N(C)C)N(C)C.O=S(=O)([N-]S(=O)(=O)C(F)(F)F)C(F)(F)F, for which the mass density was 799.49 ± 0.44 kg/m3 and the viscosity is reported as 1.948 ± 0.078 mPa·s.

Still in this series, the particulars now being: 303.15 K; 100 kPa; Liquid; x2 = 0.
Regarding `CCO` [ethanol] + CCOS(=O)(=O)[O-].CC[NH+]=C(N(C)C)N(C)C, the mass density is listed as 780.89 ± 0.47 kg/m3 and the viscosity worked out at 0.978 ± 0.04 mPa·s.

For the molecule `CCO` [ethanol] + CC[NH+]=C(N(C)C)N(C)C.O=S(=O)([N-]S(=O)(=O)C(F)(F)F)C(F)(F)F, the mass density is recorded as 780.89 ± 0.47 kg/m3 and the viscosity is 0.978 ± 0.04 mPa·s.

On to `CCCO` [propan-1-ol] + CCOS(=O)(=O)[O-].CC[NH+]=C(N(C)C)N(C)C, for which the mass density is reported as 795.46 ± 0.45 kg/m3 and the viscosity is listed as 1.707 ± 0.14 mPa·s.

With `CCCO` [propan-1-ol] + CC[NH+]=C(N(C)C)N(C)C.O=S(=O)([N-]S(=O)(=O)C(F)(F)F)C(F)(F)F, the mass density is listed as 795.46 ± 0.45 kg/m3 and the viscosity was found to be 1.707 ± 0.069 mPa·s.

The series is the same for the next values; noted with them: 308.15 K; 100 kPa; Liquid; x2 = 0.
Consider `CCO` [ethanol] + CCOS(=O)(=O)[O-].CC[NH+]=C(N(C)C)N(C)C, for which the mass density was 776.52 ± 0.48 kg/m3 and the viscosity is 0.895 ± 0.036 mPa·s.

With `CCO` [ethanol] + CC[NH+]=C(N(C)C)N(C)C.O=S(=O)([N-]S(=O)(=O)C(F)(F)F)C(F)(F)F, the mass density turned out to be 776.52 ± 0.48 kg/m3 and the viscosity worked out at 0.895 ± 0.036 mPa·s.

Take `CCCO` [propan-1-ol] + CCOS(=O)(=O)[O-].CC[NH+]=C(N(C)C)N(C)C: the mass density turned out to be 791.39 ± 0.45 kg/m3 and the viscosity is reported as 1.525 ± 0.12 mPa·s.

In the case of `CCCO` [propan-1-ol] + CC[NH+]=C(N(C)C)N(C)C.O=S(=O)([N-]S(=O)(=O)C(F)(F)F)C(F)(F)F, the mass density is 791.39 ± 0.45 kg/m3 and the viscosity turned out to be 1.525 ± 0.061 mPa·s.

Still in this series, the particulars now being: 313.15 K; 100 kPa; Liquid; x2 = 0.
In the case of `CCO` [ethanol] + CCOS(=O)(=O)[O-].CC[NH+]=C(N(C)C)N(C)C, the mass density is 772.12 ± 0.49 kg/m3 and the viscosity was 0.822 ± 0.033 mPa·s.

In the case of `CCO` [ethanol] + CC[NH+]=C(N(C)C)N(C)C.O=S(=O)([N-]S(=O)(=O)C(F)(F)F)C(F)(F)F, the mass density came to 772.12 ± 0.49 kg/m3 and the viscosity is given as 0.822 ± 0.033 mPa·s.

As for `CCCO` [propan-1-ol] + CCOS(=O)(=O)[O-].CC[NH+]=C(N(C)C)N(C)C, the mass density turned out to be 787.29 ± 0.46 kg/m3 and the viscosity was determined as 1.366 ± 0.11 mPa·s.

As to `CCCO` [propan-1-ol] + CC[NH+]=C(N(C)C)N(C)C.O=S(=O)([N-]S(=O)(=O)C(F)(F)F)C(F)(F)F, the mass density is on record as 787.29 ± 0.46 kg/m3 and the viscosity stood at 1.366 ± 0.055 mPa·s.

Still in this series, the particulars now being: 318.15 K; 100 kPa; Liquid; x2 = 0.
For `CCO` [ethanol] + CCOS(=O)(=O)[O-].CC[NH+]=C(N(C)C)N(C)C, the mass density stood at 767.71 ± 0.49 kg/m3 and the viscosity was found to be 0.756 ± 0.031 mPa·s.

As for `CCO` [ethanol] + CC[NH+]=C(N(C)C)N(C)C.O=S(=O)([N-]S(=O)(=O)C(F)(F)F)C(F)(F)F, the mass density turned out to be 767.71 ± 0.49 kg/m3 and the viscosity was found to be 0.756 ± 0.031 mPa·s.

For the molecule `CCCO` [propan-1-ol] + CCOS(=O)(=O)[O-].CC[NH+]=C(N(C)C)N(C)C, the mass density was determined as 783.14 ± 0.46 kg/m3 and the viscosity came out at 1.228 ± 0.099 mPa·s.

Take `CCCO` [propan-1-ol] + CC[NH+]=C(N(C)C)N(C)C.O=S(=O)([N-]S(=O)(=O)C(F)(F)F)C(F)(F)F: the mass density is 783.14 ± 0.46 kg/m3 and the viscosity was determined as 1.228 ± 0.05 mPa·s.

Still in this series, the particulars now being: 323.15 K; 100 kPa; Liquid; x2 = 0.
As to `CCO` [ethanol] + CCOS(=O)(=O)[O-].CC[NH+]=C(N(C)C)N(C)C, the mass density came out at 763.26 ± 0.5 kg/m3 and the viscosity worked out at 0.698 ± 0.028 mPa·s.

On to `CCO` [ethanol] + CC[NH+]=C(N(C)C)N(C)C.O=S(=O)([N-]S(=O)(=O)C(F)(F)F)C(F)(F)F, for which the mass density came out at 763.26 ± 0.5 kg/m3 and the viscosity is 0.698 ± 0.028 mPa·s.

On to `CCCO` [propan-1-ol] + CCOS(=O)(=O)[O-].CC[NH+]=C(N(C)C)N(C)C, for which the mass density was 778.93 ± 0.47 kg/m3 and the viscosity was found to be 1.107 ± 0.089 mPa·s.

Turning to `CCCO` [propan-1-ol] + CC[NH+]=C(N(C)C)N(C)C.O=S(=O)([N-]S(=O)(=O)C(F)(F)F)C(F)(F)F, the mass density is on record as 778.93 ± 0.47 kg/m3 and the viscosity is 1.107 ± 0.045 mPa·s.
